# Values quoted from earlier work as cited in article PMC7700871 (ACS chemical biology, 2020).
# Molecular target: Abl-1 (Homo sapiens, UniProt P00519)
# Settings: cited from earlier work
# Sequence of Abl-1 (P00519 whole entry, species assumed): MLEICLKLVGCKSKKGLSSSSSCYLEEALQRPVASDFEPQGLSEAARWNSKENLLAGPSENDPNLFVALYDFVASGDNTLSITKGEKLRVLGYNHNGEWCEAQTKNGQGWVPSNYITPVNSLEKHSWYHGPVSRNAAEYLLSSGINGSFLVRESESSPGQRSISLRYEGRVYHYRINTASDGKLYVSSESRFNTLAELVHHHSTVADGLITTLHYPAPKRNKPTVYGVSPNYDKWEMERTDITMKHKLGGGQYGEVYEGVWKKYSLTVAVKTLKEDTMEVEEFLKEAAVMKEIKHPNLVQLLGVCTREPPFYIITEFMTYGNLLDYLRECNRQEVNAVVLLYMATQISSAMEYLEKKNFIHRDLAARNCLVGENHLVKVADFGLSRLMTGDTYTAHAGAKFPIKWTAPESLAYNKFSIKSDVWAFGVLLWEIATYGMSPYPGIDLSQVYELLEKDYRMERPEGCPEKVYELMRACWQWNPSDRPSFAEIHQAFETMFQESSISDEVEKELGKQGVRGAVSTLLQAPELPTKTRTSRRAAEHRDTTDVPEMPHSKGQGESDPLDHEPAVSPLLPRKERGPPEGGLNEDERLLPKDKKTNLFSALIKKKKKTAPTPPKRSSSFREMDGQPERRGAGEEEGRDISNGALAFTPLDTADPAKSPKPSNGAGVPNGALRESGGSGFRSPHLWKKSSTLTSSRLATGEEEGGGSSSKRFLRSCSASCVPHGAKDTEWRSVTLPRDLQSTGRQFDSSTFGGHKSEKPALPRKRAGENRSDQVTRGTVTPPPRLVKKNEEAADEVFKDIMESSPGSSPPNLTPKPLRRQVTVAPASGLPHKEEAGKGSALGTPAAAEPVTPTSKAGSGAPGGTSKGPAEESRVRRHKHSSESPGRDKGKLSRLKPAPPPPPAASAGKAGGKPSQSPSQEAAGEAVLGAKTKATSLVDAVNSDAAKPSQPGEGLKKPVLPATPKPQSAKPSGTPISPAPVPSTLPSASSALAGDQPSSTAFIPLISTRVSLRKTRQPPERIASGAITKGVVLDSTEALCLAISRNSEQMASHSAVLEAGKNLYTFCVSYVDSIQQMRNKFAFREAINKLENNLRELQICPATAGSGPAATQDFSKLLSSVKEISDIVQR
structure (smiles),measurement,value
Cc1ccc(NC(=O)c2ccc(CN3CC[C@H](N(C)C)C3)c(C(F)(F)F)c2)cc1Nc1nccc(-c2cncnc2)n1 [bafetinib],global conformation of Abl-1's SH3-SH2-CD module,promote an open global conformation
